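Following 48 hours of exposure in 96-well plates, responses at five concentrations were used to interpolate endpoints linearly. At the GI50, growth is halved.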 Active and inactive are the calls of the source. No stated cut-off is given here; in the data, active = GI50 up to about 1.1 µM and inactive = higher.
Tests used:
Assay in all cases: growth of human tumour cells (NCI), 48 h
SR = tested on: SR
LOX IMVI = tested on: LOX IMVI
KM12 = tested on: KM12
UO-31 = tested on: UO-31
OVCAR-3 = tested on: OVCAR-3
M14 = tested on: M14
IGROV-1 = tested on: IGROV-1
NCI-H460 = tested on: NCI-H460
CCRF-CEM = tested on: CCRF-CEM
Malme-3M = tested on: Malme-3M
SF-295 = tested on: SF-295
RPMI-8226 = tested on: RPMI-8226
SW-620 = tested on: SW-620
MCF7 = tested on: MCF7
SF-539 = tested on: SF-539
HCT-116 = tested on: HCT-116
UACC-257 = tested on: UACC-257
A549 = tested on: A549
SF-268 = tested on: SF-268
EKVX = tested on: EKVX

Measured: GI50

CCN1C(=O)N2C(OC)c3ccccc3C(Br)C2(OC)C1=O (stereo not drawn)
inactive: SR > 100 µM | LOX IMVI > 100 µM | KM12 > 100 µM | UO-31 > 100 µM | OVCAR-3 > 100 µM | M14 > 100 µM | IGROV-1 > 100 µM | NCI-H460 > 100 µM | CCRF-CEM > 100 µM | Malme-3M > 100 µM | SF-295 > 100 µM | RPMI-8226 > 100 µM | SW-620 > 100 µM

Cc1nc2nnc(CCCCCCCCc3nnc4nc(C)[nH]n34)n2[nH]1
inactive: MCF7 > 100 µM | SF-539 > 100 µM | LOX IMVI 47.4 µM | HCT-116 > 100 µM | UACC-257 > 100 µM | KM12 66.1 µM | UO-31 > 100 µM | OVCAR-3 > 100 µM | M14 > 100 µM | IGROV-1 > 100 µM | NCI-H460 > 100 µM | A549 > 100 µM | SF-268 > 100 µM | CCRF-CEM > 100 µM | EKVX > 100 µM | Malme-3M > 100 µM | SF-295 > 100 µM | SW-620 > 100 µM

O=c1nc2n(c3nsnc13)CCO2
inactive: SF-539 > 100 µM | SR > 100 µM | LOX IMVI > 100 µM | HCT-116 29.8 µM | UACC-257 > 100 µM | KM12 > 100 µM | UO-31 > 100 µM | OVCAR-3 > 100 µM | M14 > 100 µM | IGROV-1 > 100 µM | NCI-H460 > 100 µM | A549 > 100 µM | SF-268 > 100 µM | CCRF-CEM > 100 µM | EKVX > 100 µM | Malme-3M > 100 µM | RPMI-8226 > 100 µM | SW-620 > 100 µM

CSc1nc2c(ncn2C2OC(CO)C(O)C(O)C2O)c(=O)n1C (stereo not drawn)
inactive: MCF7 > 100 µM | SF-539 > 100 µM | LOX IMVI > 100 µM | HCT-116 > 100 µM | UACC-257 > 100 µM | KM12 > 100 µM | UO-31 > 100 µM | OVCAR-3 > 100 µM | IGROV-1 > 100 µM | NCI-H460 > 100 µM | A549 > 100 µM | SF-268 > 100 µM | CCRF-CEM > 100 µM | EKVX > 100 µM | Malme-3M > 100 µM | SF-295 > 100 µM | RPMI-8226 > 100 µM | SW-620 > 100 µM

O=c1n(C2CCCCC2)c(=C(Cl)Cl)c(=C(Cl)Cl)n1C1CCCCC1
inactive: SF-539 > 100 µM | SR > 100 µM | LOX IMVI > 100 µM | HCT-116 85.7 µM | UACC-257 54.5 µM | KM12 > 100 µM | UO-31 > 100 µM | OVCAR-3 > 100 µM | IGROV-1 > 100 µM | NCI-H460 > 100 µM | A549 > 100 µM | SF-268 > 100 µM | CCRF-CEM > 100 µM | EKVX > 100 µM | Malme-3M > 100 µM | SF-295 > 100 µM | RPMI-8226 34.6 µM | SW-620 > 100 µM

NNC(=O)c1c(SCc2ccccc2)nc2c3ccccc3ccn12
inactive: MCF7 24.2 µM | SF-539 15.9 µM | UACC-257 37.2 µM | KM12 22.6 µM | UO-31 10 µM | OVCAR-3 2.92 µM | M14 14.5 µM | IGROV-1 14.4 µM | NCI-H460 14.8 µM | A549 23.4 µM | SF-268 20.3 µM | CCRF-CEM 2.92 µM | EKVX 19.5 µM | SF-295 21.9 µM | SW-620 20.9 µM

CC(C)=CC1CC(=[N+]=[N-])C(=O)C1(C)C (stereo not drawn)
inactive: SF-539 > 100 µM | SR 23.1 µM | LOX IMVI > 75.7 µM | HCT-116 > 100 µM | UACC-257 > 100 µM | KM12 > 100 µM | UO-31 > 59 µM | OVCAR-3 > 100 µM | M14 > 100 µM | IGROV-1 > 100 µM | NCI-H460 99.5 µM | A549 > 100 µM | SF-268 > 100 µM | CCRF-CEM > 53 µM | EKVX > 100 µM | Malme-3M > 100 µM | SF-295 > 100 µM | RPMI-8226 > 51.8 µM | SW-620 > 100 µM

C#Cc1ccccc1C(=O)OC
inactive: SF-539 > 100 µM | SR > 100 µM | LOX IMVI > 100 µM | HCT-116 > 100 µM | UACC-257 > 100 µM | KM12 > 100 µM | UO-31 > 100 µM | OVCAR-3 > 100 µM | M14 > 100 µM | IGROV-1 > 100 µM | NCI-H460 > 100 µM | A549 > 100 µM | CCRF-CEM > 100 µM | EKVX > 100 µM | Malme-3M > 100 µM | SF-295 > 100 µM | RPMI-8226 > 100 µM | SW-620 > 100 µM

CC(=O)NNc1nc(C)c(C(=O)/C=C/c2cccc([N+](=O)[O-])c2)s1
inactive: SF-539 > 100 µM | SR > 100 µM | LOX IMVI > 100 µM | HCT-116 > 100 µM | UACC-257 > 100 µM | KM12 > 100 µM | UO-31 > 100 µM | OVCAR-3 > 100 µM | M14 > 100 µM | IGROV-1 > 100 µM | NCI-H460 > 100 µM | A549 > 100 µM | SF-268 > 100 µM | CCRF-CEM > 100 µM | EKVX 19.5 µM | Malme-3M > 100 µM | SF-295 > 100 µM | RPMI-8226 > 100 µM | SW-620 > 100 µM

Cc1cccc(-c2cc(=S)c3cc(N4CCCC4)ccc3[nH]2)c1
inactive: MCF7 > 100 µM | SF-539 > 100 µM | LOX IMVI > 100 µM | HCT-116 > 100 µM | UACC-257 > 100 µM | KM12 > 100 µM | UO-31 > 100 µM | OVCAR-3 > 100 µM | M14 > 100 µM | A549 > 100 µM | SF-268 > 100 µM | CCRF-CEM > 100 µM | EKVX > 100 µM | SF-295 > 100 µM | RPMI-8226 > 100 µM | SW-620 > 100 µM

COC(=O)C1=C(\O)C[C@@]2(C)CC[C@@H](C(=O)OC)C2C/C=C\1C(=O)OC (stereo partly drawn)
inactive: SF-539 19.7 µM | SR 81.3 µM | LOX IMVI > 100 µM | HCT-116 66.1 µM | UACC-257 72.8 µM | KM12 > 100 µM | UO-31 64 µM | OVCAR-3 > 100 µM | M14 > 100 µM | IGROV-1 > 100 µM | NCI-H460 > 100 µM | A549 87.7 µM | SF-268 70.5 µM | CCRF-CEM > 100 µM | EKVX > 100 µM | Malme-3M > 100 µM | SF-295 > 100 µM | RPMI-8226 50.1 µM | SW-620 > 100 µM

O=NN1C(c2ccccc2)C2CCCC(C2=O)C1c1ccccc1 (stereo not drawn)
inactive: MCF7 20.7 µM | SF-539 44.6 µM | LOX IMVI 22.9 µM | HCT-116 25.5 µM | UACC-257 24 µM | KM12 32.5 µM | UO-31 22.9 µM | OVCAR-3 4.82 µM | IGROV-1 40 µM | NCI-H460 22 µM | A549 34 µM | SF-268 49.8 µM | CCRF-CEM 28.3 µM | EKVX 28.4 µM | Malme-3M 7.53 µM | SF-295 30.8 µM | RPMI-8226 22.3 µM | SW-620 43.9 µM

O=[N+]([O-])c1ccc(/C=C/c2ccc(/N=N/c3ccc(/C=C/c4ccc([N+](=O)[O-])cc4S(=O)(=O)O)c(S(=O)(=O)O)c3)cc2S(=O)(=O)O)c(S(=O)(=O)O)c1
inactive: MCF7 > 100 µM | SF-539 > 100 µM | LOX IMVI > 100 µM | HCT-116 > 100 µM | UACC-257 > 100 µM | KM12 > 100 µM | UO-31 > 100 µM | OVCAR-3 > 87.5 µM | IGROV-1 > 100 µM | NCI-H460 > 100 µM | A549 > 100 µM | SF-268 > 100 µM | CCRF-CEM > 100 µM | EKVX > 100 µM | Malme-3M > 100 µM | SF-295 > 100 µM | SW-620 > 100 µM

CCOC(=O)C1C=C2O[C@@H]3OC4(CCCCC4)O[C@@H]3C2[C@H]2C(=O)C=CC(=O)[C@@]12C(=O)OC (stereo partly drawn)
inactive: SF-539 3.15 µM | SR 2.71 µM | LOX IMVI 15.5 µM | HCT-116 6.61 µM | UACC-257 16.8 µM | KM12 12.3 µM | UO-31 16.3 µM | OVCAR-3 7.89 µM | M14 15.9 µM | IGROV-1 10.3 µM | NCI-H460 14.6 µM | A549 14.5 µM | SF-268 12.4 µM | CCRF-CEM 2.84 µM | EKVX 16.6 µM | Malme-3M 17.2 µM | SF-295 18.2 µM | RPMI-8226 2.84 µM | SW-620 12.8 µM

Nc1nc2[nH]c(=O)cnc2c(=O)[nH]1 [ISOXANTHOPTERIN]
inactive: MCF7 > 125 µM | SF-539 > 125 µM | LOX IMVI > 125 µM | HCT-116 > 125 µM | UACC-257 > 125 µM | KM12 > 125 µM | UO-31 > 125 µM | OVCAR-3 > 125 µM | IGROV-1 > 125 µM | NCI-H460 > 125 µM | A549 > 125 µM | SF-268 > 125 µM | CCRF-CEM > 125 µM | EKVX > 125 µM | Malme-3M > 108 µM | SF-295 > 125 µM | RPMI-8226 > 125 µM | SW-620 > 125 µM
